The data set in a line: Human HepG2 cell viability assay in 384 well format. The format is toxicity, cell-based. Further details: dose 125 nL, time 70.5 hour; cytotoxicity at 70.5 h: concentration not given beside the values. Conditions: HepG2 cells, read-out: Inhibition.
As for `Cc1ccccc1[C@@H]1CN(Cc2ccc(C(F)(F)F)nc2)C[C@H]1C(=O)O`, the cytotoxicity at 70.5 h is -4.46%.
Consider `CNS(=O)(=O)CC(=O)N(C1CCCC1)C1CC1`, for which the cytotoxicity at 70.5 h is -12.4%.
Then `Cn1cc(C2CCCN2Cc2cscn2)cn1` (centres undefined), with -2.56%; and `CNC(=O)CN1CCCC12CCN(C(=O)c1ccoc1)CC2`, with -11.1%.
As for `O=C(Nc1c(N2CCCC2)cccc1N1CCCC1)c1cnccn1`, the cytotoxicity at 70.5 h was -14.4%.
`O=C(NCCOc1ccc(F)c(F)c1)NCc1cccc(CO)c1`: the cytotoxicity at 70.5 h is -9.23%.
With `Cc1nc(-c2cnn(C)c2)sc1C(=O)NCc1ccc(C)n1C`, the cytotoxicity at 70.5 h was -2.82%.
Turning to `O=C(CCO)N1C[C@H]2CN(c3ccccc3)C(=O)[C@H]2C1`, the cytotoxicity at 70.5 h is -8.23%.
Take `CCOC(=O)CN1CCC2(CCCN(CCOc3ccccc3)C2)C1` (centres undefined): the cytotoxicity at 70.5 h is -16%.
In the case of `Cn1c(CN2CCOC(Cn3cncn3)C2)nc2ccccc21` (centres undefined), the cytotoxicity at 70.5 h was found to be 13.6%.
Under `Cn1nc(CN2CCCCC2)c2c1CN(Cc1ccoc1)C2` stands -7.22%; under `NC(=O)CN1CCCN(C(=O)c2ccn(-c3ccccc3)n2)CC1`, -3.77%.
Then `CCCc1nc(C)cc(N2CCC3(CCC(=O)N(C4CC4)C3)CC2)n1`, with -5.2%.
Under `Cc1cc2nc(-c3ccccc3)cc(NCC3CCCOC3)n2n1` (centres undefined) stands 0.476%; under `O=C(CCC(F)(F)F)N1CCCC(c2ncc[nH]2)C1` (centres undefined), 42.3%.
For the molecule `Cc1ccc(-c2cc(C(=O)N(C)Cc3noc4c3CCCC4)[nH]n2)o1`, the cytotoxicity at 70.5 h came to 43.8%.
Then `O=C(O)c1c[nH]c2cc(NS(=O)(=O)c3cc(F)ccc3Cl)ccc12`, with -9.41%; and `CC(=O)N1CCC2(CC1)CCN(S(=O)(=O)c1ccccc1)C2`, with 29.2%; and `CCOC(=O)C1CCN(c2cc(C(=O)N3CCCCC3)nc(C)n2)CC1`, with -8.82%.
Then `CC(C)(O)CCc1cccc(C(=O)N2Cc3cnn(CCO)c3C2)c1`, with -17.1%; and `Cn1cc(C(=O)CC2CCCN2C(=O)c2ccn3ccnc3c2)cn1` (centres undefined), with -10.3%.
Then `Cc1noc2ncc(C(=O)NCC3CCS(=O)(=O)C3)cc12` (centres undefined), with -7.14%; and `Cc1cn(-c2ccccc2)nc1NS(=O)(=O)c1cc(C(=O)O)cs1`, with 14.9%; and `COc1ccc(C(=O)NC(CC(=O)O)c2cccs2)c(OC)c1` (centres undefined), with -11.6%.
For `COc1ccc(C(C)Nc2cnn(C)c(=O)c2Cl)cc1OC` (centres undefined), the cytotoxicity at 70.5 h was -3.5%.
Under `Cc1ncc(C(=O)NCCNc2ncnc3sccc23)s1` stands -2.99%.
Under `CNC(=O)C(C)(C)NC(=O)c1cc(COc2ccccc2OC)[nH]n1` stands -8.56%.
Then `CN(CCc1ccncc1)Cc1nccn1Cc1ccccc1`, with 8.96%; and `Cc1ccc(-c2nnc(CN3CCOCC(CO)C3)o2)n1C` (centres undefined), with -3.57%; and `Fc1cccc(C2CCCCN2Cc2nc(-c3cnccn3)no2)c1` (centres undefined), with -1.63%.
`COCC(C)NC(=O)CCSc1ccc(F)cc1` (centres undefined): the cytotoxicity at 70.5 h is 13.7%.
Under `COCCC(=O)N1CCCC1c1nc(C)c2c(n1)N(C)C(=O)CC2` (centres undefined) stands -3.97%; under `CN(C)CCN1CCOCC2(CCCN(C(=O)c3ccccc3)C2)C1` (centres undefined), -2.82%.
Then `CN1CCN(CCCOc2ccccc2CN2C[C@H]3CC[C@H]2C3)CC1`, with 17.4%; and `CCCc1nc(C)cc(N2CCNC(C(=O)NC3CC3)C2)n1` (centres undefined), with 2.45%; and `Cn1nccc1-c1nc2c(cc1C(=O)O)CCN(C(=O)C1CC1)CC2`, with -2.87%.
Take `Cn1cccc1C(=O)N1CCN2C[C@H](Oc3cccnc3)C[C@H]2C1`: the cytotoxicity at 70.5 h amounted to 21.7%.
Under `COC(=O)N1CCC2(CC1)N=C(CCC(C)C)NC2=O` stands -8.4%; under `O=C(C1CCCO1)N1CCC(n2cc(-c3ccsc3)nn2)CC1` (centres undefined), -13.3%.

For the origin of these results see ChEMBL document CHEMBL3507680, “University of Dundee, Gates Library screen for HepG2 cell viability”.
